According to patent US20260184713A1, “KINASE INHIBITORS” (The United States of America, as represented by the …, priority 2022, published 2026):
Read-outs that look alike come from different tables or passages of the source.

What was measured:
CLK4 = molecular target: T1, CLK4 (Homo sapiens, UniProt Q9HAZ1); experiment: HOTSPOT radiometric kinase assay; format: biochemical
T1 construct: purchased Reaction Biology Corp

DYRK3 = molecular target: T2, DYRK3 (Homo sapiens, UniProt O43781); experiment: HOTSPOT radiometric kinase assay; format: biochemical
T2 construct: purchased Reaction Biology Corp
T2 sequence (O43781 1-588): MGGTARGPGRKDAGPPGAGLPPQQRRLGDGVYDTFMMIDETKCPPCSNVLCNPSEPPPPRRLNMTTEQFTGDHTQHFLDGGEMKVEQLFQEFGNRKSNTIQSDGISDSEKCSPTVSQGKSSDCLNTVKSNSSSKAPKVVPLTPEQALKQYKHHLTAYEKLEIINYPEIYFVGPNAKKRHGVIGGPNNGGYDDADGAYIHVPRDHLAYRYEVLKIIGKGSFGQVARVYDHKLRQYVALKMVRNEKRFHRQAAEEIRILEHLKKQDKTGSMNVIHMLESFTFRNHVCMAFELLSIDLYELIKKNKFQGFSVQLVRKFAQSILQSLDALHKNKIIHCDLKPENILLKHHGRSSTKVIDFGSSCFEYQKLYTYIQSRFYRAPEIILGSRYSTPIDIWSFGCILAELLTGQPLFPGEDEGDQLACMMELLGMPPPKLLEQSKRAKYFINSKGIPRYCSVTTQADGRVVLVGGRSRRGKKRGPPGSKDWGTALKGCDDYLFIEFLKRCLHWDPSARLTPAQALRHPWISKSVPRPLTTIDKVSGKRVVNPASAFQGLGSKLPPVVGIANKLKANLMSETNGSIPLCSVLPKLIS

ROCK1 = molecular target: T3, ROCK1 (Homo sapiens, UniProt Q13464); experiment: HOTSPOT radiometric kinase assay; format: biochemical; conditions: 10 μM ATP
T3 construct: purchased Reaction Biology Corp

PKCη = molecular target: T4, PKCη (Homo sapiens, UniProt P24723); experiment: HOTSPOT radiometric kinase assay; format: biochemical
T4 construct: purchased Reaction Biology Corp

PKCθ = molecular target: T5, PKCθ (Homo sapiens, UniProt Q04759); experiment: HOTSPOT radiometric kinase assay; format: biochemical; conditions: 2 μM, 10 μM ATP
T5 construct: purchased Reaction Biology Corp

PKN1 = molecular target: T6, PKN1 (Homo sapiens, UniProt Q16512); experiment: HOTSPOT radiometric kinase assay; format: biochemical; conditions: 10 μM ATP
T6 construct: purchased Reaction Biology Corp

AKT1 = AKT1 (Homo sapiens, UniProt P31749); experiment: HOTSPOT radiometric kinase assay
NLK = molecular target: T7, NLK (Homo sapiens, UniProt Q9UBE8); experiment: HOTSPOT radiometric kinase assay; format: biochemical; conditions: 10 μM ATP
T7 construct: purchased Reaction Biology Corp

DCAMKL1 = molecular target: T8, DCAMKL1 (Homo sapiens, UniProt O15075); experiment: HOTSPOT radiometric kinase assay; format: biochemical; conditions: 10 μM ATP
T8 construct: purchased Reaction Biology Corp

PKCα = PKCα (Homo sapiens, UniProt P17252); experiment: HOTSPOT radiometric kinase assay
IRAK2 = molecular target: T9, IRAK2 (Homo sapiens, UniProt O43187); experiment: HOTSPOT radiometric kinase assay; format: biochemical; conditions: 10 μM ATP
T9 construct: purchased Reaction Biology Corp

Luciferase = experiment: luciferase assay without PKA (Luciferase Only); format: biochemical
From the text: . Therefore, a competitive kinetic study was further conducted to investigate how 1 interacted with the PKA protein. […]. Thus, all the results supported that 1 was likely to function as an ATP-competitive inhibitor by direct interacting with the PKA catalytic unit (see FIGS. 2A-2B).

PKCv/PKD3 = molecular target: T10, PKCv/PKD3 (Homo sapiens, UniProt O94806); experiment: HOTSPOT radiometric kinase assay; format: biochemical
T10 construct: purchased Reaction Biology Corp
T10 sequence (O94806 1-890): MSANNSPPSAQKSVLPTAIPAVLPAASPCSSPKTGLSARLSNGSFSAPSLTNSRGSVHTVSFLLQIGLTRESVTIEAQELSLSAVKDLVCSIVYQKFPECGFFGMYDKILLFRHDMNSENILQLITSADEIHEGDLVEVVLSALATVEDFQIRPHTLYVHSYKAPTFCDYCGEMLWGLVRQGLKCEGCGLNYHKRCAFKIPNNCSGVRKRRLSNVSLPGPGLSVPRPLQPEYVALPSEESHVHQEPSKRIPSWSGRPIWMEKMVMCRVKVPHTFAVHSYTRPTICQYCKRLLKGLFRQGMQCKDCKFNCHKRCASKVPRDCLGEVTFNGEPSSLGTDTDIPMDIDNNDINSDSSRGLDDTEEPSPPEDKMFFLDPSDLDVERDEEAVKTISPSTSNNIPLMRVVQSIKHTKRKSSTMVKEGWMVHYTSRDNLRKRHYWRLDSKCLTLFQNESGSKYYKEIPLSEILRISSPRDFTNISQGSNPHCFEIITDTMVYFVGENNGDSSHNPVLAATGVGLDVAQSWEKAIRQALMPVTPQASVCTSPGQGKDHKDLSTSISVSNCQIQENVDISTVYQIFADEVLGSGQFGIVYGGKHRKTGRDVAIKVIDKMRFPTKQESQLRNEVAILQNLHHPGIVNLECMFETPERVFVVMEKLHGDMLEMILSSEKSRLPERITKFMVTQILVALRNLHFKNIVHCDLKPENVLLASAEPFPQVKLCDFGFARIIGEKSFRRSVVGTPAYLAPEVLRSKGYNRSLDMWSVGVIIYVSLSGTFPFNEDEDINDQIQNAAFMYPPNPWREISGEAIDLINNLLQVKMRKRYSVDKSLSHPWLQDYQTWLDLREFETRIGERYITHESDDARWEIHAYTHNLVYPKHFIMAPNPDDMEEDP

STK33 = molecular target: T11, STK33 (Homo sapiens, UniProt Q9BYT3); experiment: HOTSPOT radiometric kinase assay; format: biochemical; conditions: 10 μM ATP
T11 construct: purchased Reaction Biology Corp

ERK1 = ERK1 (Homo sapiens, UniProt P27361); experiment: HOTSPOT radiometric kinase assay
Sequence of ERK1 (P27361 whole entry): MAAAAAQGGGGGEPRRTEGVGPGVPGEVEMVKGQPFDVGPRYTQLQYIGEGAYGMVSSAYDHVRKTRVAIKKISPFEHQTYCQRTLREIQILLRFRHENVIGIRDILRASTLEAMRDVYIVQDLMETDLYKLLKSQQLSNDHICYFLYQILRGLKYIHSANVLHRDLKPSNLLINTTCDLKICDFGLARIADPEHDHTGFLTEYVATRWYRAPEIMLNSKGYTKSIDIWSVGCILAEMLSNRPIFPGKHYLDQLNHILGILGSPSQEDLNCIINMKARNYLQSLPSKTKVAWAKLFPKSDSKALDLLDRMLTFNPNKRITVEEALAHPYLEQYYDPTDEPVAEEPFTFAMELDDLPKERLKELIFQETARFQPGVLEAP

T4 sequence (P24723 whole entry): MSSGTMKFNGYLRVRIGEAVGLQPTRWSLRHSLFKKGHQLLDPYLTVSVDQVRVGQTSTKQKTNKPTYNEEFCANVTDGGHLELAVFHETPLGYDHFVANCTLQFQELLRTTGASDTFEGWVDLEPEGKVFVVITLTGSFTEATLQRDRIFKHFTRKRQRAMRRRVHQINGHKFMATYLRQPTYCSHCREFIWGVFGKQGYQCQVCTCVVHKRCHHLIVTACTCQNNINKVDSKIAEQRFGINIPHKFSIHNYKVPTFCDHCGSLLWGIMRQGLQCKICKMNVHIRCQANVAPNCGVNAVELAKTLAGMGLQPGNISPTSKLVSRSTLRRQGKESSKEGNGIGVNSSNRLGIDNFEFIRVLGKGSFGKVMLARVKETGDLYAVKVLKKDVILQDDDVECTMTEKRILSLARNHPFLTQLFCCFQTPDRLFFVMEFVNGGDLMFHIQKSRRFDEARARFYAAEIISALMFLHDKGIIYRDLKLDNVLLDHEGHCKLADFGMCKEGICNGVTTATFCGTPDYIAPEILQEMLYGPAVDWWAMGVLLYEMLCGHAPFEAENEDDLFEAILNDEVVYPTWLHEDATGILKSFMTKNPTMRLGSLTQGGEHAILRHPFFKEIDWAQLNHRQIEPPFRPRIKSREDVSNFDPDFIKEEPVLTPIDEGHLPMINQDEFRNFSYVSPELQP
Sequence of AKT1 (P31749 whole entry): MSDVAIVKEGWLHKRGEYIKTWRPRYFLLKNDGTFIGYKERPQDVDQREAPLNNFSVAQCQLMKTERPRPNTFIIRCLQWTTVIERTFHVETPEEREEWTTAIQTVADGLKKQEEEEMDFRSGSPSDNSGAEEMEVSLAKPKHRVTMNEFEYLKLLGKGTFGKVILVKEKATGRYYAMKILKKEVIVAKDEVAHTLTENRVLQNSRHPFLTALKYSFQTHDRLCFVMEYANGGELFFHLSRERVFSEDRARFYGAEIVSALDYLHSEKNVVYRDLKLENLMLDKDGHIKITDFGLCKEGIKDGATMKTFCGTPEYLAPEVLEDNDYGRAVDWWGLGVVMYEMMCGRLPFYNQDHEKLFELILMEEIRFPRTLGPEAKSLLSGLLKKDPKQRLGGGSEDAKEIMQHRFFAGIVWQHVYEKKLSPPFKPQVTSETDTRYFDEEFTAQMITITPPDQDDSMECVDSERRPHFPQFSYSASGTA
T1 sequence (Q9HAZ1 whole entry): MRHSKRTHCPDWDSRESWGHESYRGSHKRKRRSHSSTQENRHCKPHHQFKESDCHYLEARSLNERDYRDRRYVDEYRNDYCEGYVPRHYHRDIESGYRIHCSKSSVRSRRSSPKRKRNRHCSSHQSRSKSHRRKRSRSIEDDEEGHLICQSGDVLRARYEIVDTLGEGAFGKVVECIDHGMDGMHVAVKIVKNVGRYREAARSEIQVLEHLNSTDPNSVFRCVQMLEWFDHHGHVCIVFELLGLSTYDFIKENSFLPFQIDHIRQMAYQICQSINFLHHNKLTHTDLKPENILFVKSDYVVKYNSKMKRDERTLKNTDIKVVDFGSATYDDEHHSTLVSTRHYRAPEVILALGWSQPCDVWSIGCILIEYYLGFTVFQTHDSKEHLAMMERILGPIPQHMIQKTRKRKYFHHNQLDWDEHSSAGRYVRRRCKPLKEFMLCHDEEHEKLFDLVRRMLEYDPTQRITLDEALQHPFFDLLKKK
T7 sequence (Q9UBE8 whole entry): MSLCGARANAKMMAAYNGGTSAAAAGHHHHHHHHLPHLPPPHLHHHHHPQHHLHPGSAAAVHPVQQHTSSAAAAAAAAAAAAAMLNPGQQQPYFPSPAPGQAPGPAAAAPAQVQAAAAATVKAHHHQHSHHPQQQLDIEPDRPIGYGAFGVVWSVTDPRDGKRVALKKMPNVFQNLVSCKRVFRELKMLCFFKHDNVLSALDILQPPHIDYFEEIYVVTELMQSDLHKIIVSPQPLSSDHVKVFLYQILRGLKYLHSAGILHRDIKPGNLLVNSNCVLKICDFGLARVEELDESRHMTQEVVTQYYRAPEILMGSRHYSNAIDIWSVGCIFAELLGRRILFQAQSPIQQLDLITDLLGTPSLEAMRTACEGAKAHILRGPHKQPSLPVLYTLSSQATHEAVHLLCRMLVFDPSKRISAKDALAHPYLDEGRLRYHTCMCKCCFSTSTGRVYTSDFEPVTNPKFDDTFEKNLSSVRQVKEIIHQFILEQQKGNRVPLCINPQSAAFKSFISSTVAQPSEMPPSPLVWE
T9 sequence (O43187 whole entry): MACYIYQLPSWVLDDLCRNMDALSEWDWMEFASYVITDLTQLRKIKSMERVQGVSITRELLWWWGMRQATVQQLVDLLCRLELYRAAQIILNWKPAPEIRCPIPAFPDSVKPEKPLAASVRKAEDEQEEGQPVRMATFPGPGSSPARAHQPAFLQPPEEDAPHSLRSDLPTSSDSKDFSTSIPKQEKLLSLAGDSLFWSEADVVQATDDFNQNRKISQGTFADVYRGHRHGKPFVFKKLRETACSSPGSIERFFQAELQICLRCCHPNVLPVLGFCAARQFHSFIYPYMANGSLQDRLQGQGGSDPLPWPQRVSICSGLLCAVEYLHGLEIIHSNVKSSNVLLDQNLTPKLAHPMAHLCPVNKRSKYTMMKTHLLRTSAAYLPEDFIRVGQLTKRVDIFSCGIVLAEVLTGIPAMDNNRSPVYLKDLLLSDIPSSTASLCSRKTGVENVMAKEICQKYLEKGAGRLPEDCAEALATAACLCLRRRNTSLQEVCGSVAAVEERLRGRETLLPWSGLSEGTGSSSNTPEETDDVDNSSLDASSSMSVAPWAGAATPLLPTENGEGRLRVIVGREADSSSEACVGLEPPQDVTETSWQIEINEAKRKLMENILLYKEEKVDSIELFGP
T6 sequence (Q16512 whole entry): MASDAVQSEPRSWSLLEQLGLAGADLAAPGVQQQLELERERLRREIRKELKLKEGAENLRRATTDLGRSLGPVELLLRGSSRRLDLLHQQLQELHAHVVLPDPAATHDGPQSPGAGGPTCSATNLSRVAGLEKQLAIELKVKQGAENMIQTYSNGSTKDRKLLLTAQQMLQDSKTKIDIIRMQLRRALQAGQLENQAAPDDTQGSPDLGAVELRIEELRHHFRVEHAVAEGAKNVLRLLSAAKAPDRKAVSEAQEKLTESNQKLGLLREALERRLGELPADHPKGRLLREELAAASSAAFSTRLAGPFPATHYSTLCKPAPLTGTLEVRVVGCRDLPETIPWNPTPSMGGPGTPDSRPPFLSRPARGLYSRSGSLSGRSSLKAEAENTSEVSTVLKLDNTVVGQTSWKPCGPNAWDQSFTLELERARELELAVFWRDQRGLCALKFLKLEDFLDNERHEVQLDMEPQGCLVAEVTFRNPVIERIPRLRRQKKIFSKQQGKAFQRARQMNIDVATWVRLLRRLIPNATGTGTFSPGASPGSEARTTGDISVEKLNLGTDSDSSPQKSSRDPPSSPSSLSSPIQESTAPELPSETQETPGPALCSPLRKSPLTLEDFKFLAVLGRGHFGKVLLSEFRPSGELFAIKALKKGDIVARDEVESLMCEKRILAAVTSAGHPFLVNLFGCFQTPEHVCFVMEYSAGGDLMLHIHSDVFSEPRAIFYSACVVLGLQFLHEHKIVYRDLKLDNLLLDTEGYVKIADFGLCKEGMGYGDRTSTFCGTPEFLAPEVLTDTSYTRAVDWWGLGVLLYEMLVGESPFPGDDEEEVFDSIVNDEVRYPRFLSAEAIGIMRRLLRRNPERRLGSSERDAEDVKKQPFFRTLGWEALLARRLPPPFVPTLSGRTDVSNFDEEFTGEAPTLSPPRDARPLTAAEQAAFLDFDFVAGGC
T11 sequence (Q9BYT3 whole entry): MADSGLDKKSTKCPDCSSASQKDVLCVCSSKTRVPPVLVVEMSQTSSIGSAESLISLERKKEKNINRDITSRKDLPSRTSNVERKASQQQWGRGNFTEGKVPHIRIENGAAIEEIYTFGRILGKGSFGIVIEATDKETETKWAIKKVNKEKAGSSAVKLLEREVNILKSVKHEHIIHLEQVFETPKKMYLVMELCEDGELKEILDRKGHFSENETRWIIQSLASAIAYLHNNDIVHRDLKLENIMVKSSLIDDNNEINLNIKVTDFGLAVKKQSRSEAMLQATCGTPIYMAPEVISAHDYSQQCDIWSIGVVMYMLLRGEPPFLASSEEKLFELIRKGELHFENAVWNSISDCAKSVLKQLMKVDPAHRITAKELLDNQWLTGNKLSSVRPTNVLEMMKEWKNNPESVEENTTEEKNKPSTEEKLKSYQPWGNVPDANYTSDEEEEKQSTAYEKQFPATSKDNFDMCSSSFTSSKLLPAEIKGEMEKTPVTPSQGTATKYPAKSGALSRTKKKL

With Cn1cncc1C1=CN(c2ncnc3nc[nH]c23)CCS1 [Compound 1, Aplithianine A] as the compound, how does the inhibition at 0.05 µM (CLK4; 50 nM, 10 μM ATP) read?
Its inhibition at 0.05 µM is 27.1%.

What about the inhibition at 2 µM (CLK4; 2 μM, 10 μM ATP) of the same compound?
Its inhibition at 2 µM is 84.7%.

And the IC50 (CLK4; 10 μM ATP, read-out: CLK4 IC50)?
The IC50 was 153 nM.

And the “CLK4 Differential (as compared to PKG1a)” value (CLK4; IC50 (kinase)/IC50 (PKG1a))?
Its value is 13.49.

What about the IC50 (CLK4; Table 4 dose-response, read-out: CLK4 IC50 Values) of the same compound?
Its IC50 is 154 nM.

And the inhibition at 0.05 µM (DYRK3; 50 nM, 10 μM ATP)?
The inhibition at 0.05 µM was 15.9%.

What about the inhibition at 2 µM (DYRK3; 2 μM, 10 μM ATP) of the same compound?
Its inhibition at 2 µM is 90.9%.

What about the IC50 (DYRK3; 10 μM ATP, read-out: DYRK3 IC50) of the same compound?
Its IC50 is 202 nM.

What about the “DYRK3 Differential (as compared to PKG1a)” value (DYRK3; IC50 (kinase)/IC50 (PKG1a)) of the same compound?
The value was 19.13.

And the IC50 (DYRK3; Table 4 dose-response, read-out: DYRK3 IC50 Values)?
The IC50 was 218 nM.

And the inhibition at 0.05 µM (ROCK1; 50 nM)?
Its inhibition at 0.05 µM is 27%.

What about the inhibition at 2 µM (ROCK1; 2 μM) of the same compound?
Its inhibition at 2 µM is 88.6%.

And the inhibition at 0.05 µM (PKCη; 50 nM, 10 μM ATP)?
The inhibition at 0.05 µM was 15.8%.

And the inhibition at 2 µM (PKCη; 2 μM, 10 μM ATP)?
The inhibition at 2 µM was 83.6%.

And the IC50 (PKCη; 10 μM ATP, read-out: PKCη IC50)?
Its IC50 is 202 nM.

And the “PKCeta Differential (as compared to PKG1a)” value (PKCη; IC50 (kinase)/IC50 (PKG1a))?
The value was 16.08.

What about the IC50 (PKCη; Table 4 dose-response, read-out: PKCeta IC50 Values) of the same compound?
Its IC50 is 183 nM.

And the inhibition at 2 µM (PKCθ)?
Its inhibition at 2 µM is 97.9%.

And the inhibition at 0.05 µM (PKN1; 50 nM)?
The inhibition at 0.05 µM was 18.8%.

What about the inhibition at 2 µM (PKN1; 2 μM) of the same compound?
Its inhibition at 2 µM is 87.7%.

What about the IC50 (AKT1) of the same compound?
Its IC50 is 43 to 189 nM.

And the inhibition at 0.05 µM (AKT1; read-out: AKT1 % inhibition)?
The inhibition at 0.05 µM was 25.1%.

And the inhibition at 2 µM (AKT1; read-out: AKT1 % inhibition)?
The inhibition at 2 µM was 83.7%.

And the IC50 (AKT1; read-out: AKT1 IC50, 10 μM ATP)?
The IC50 was 179 nM.

And the inhibition at 0.05 µM (NLK; 50 nM)?
The inhibition at 0.05 µM was 19.6%.

And the inhibition at 2 µM (NLK; 2 μM)?
The inhibition at 2 µM was 43%.

And the inhibition at 0.05 µM (DCAMKL1; 50 nM)?
Its inhibition at 0.05 µM is 12.8%.

And the inhibition at 2 µM (DCAMKL1; 2 μM)?
The inhibition at 2 µM was 14.2%.

And the IC50 (PKCα)?
The IC50 was 800 to 6600 nM.

And the IC50 (PKCα; read-out: PKCα IC50, 10 μM ATP)?
Its IC50 is 1320 nM.

What about the inhibition at 0.05 µM (IRAK2; 50 nM) of the same compound?
The inhibition at 0.05 µM was 30.7%.

And the inhibition at 2 µM (IRAK2; 2 μM)?
The inhibition at 2 µM was 85%.

And the “activity when PKA was absent in the assay” value (Luciferase)?
The value was “no activity was observed”.

And the inhibition at 0.05 µM (PKCv/PKD3; 50 nM, 10 μM ATP)?
The inhibition at 0.05 µM was 25%.

What about the inhibition at 2 µM (PKCv/PKD3; 2 μM, 10 μM ATP) of the same compound?
The inhibition at 2 µM was 88.9%.

What about the IC50 (PKCv/PKD3; 10 μM ATP, read-out: PKCv/PKD3 IC50) of the same compound?
The IC50 was 130 nM.

And the “PKCnu Differential (as compared to PKG1a)” value (PKCv/PKD3; IC50 (kinase)/IC50 (PKG1a))?
The value was 11.92.

What about the IC50 (PKCv/PKD3; Table 4 dose-response, read-out: PKCnu IC50 Values) of the same compound?
Its IC50 is 136 nM.

What about the inhibition at 0.05 µM (STK33; 50 nM) of the same compound?
Its inhibition at 0.05 µM is 23.6%.

And the inhibition at 2 µM (STK33; 2 μM)?
Its inhibition at 2 µM is 80.5%.

What about the IC50 (ERK1) of the same compound?
Its IC50 is 800 to 6600 nM.

And the IC50 (ERK1; read-out: ERK1 IC50, 10 μM ATP)?
Its IC50 is 5720 nM.
